Values after ≈ are worked out from the molar mass of the structure shown.
What was measured:
[1] = Proliferation of exponentially growing Huh-5-2 cells (MTS method); conditions: human, CC50, concentration required to inhibit the proliferation of exponentially growing Huh-5-2 cells by 50%; Table 2
Protocol: Cells were seeded at a density of 7000 cells per well in 96 well View Plate™ (Packard) in medium containing the same components as described above, except for G418. Cells were allowed to adhere and proliferate for 24 hr. At that time, culture medium was removed and serial dilutions of the test compounds were added in culture medium lacking G418. Interferon alfa 2a (500 IU) was included as a positive control. Plates were further incubated at 37° C. and 5% CO2 for 72 hours. Replication of the HCV replicon in Huh-5 cells results in luciferase activity in the cells. Luciferase activity is measured by adding 50 μl of 1×Glo-lysis buffer (Promega) for 15 minutes followed by 50 ul of the Steady-Glo Luciferase assay reagent (Promega). Luciferase activity is measured with a luminometer and the signal in each individual well is expressed as a percentage of the untreated cultures. […] Instead the density of the culture is measured by means of the MTS method (Promega).

[2] = system: HCV replicon I389luc-ubi-neo/NS3-3'/5.1; test: Anti-HCV replicon assay (luciferase activity) in Huh-5-2 cells; format: cell-based, Hepatitis C virus; conditions: Hepatitis C virus, Huh-5-2, 72 h, concentration required to inhibit luciferase activity in the replicon system by 50%
In short: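 Huh-5-2 cells carrying the luciferase HCV replicon, seeded 24 h, then exposed to serial compound dilutions without G418 for 72 h at 37° C, 5% CO2. Replication read as luciferase luminescence, expressed as percentage of untreated cultures; culture density measured in parallel by MTS.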

Row | SMILES | CC50 at 72 h [1] [µg/mL] | IC50 [2] [µg/mL]
1 | COCCN1C(=O)c2ccccc2C(C(=O)Nc2cccc(OC)c2)C1c1cc(C)on1 (stereo not drawn) [C103, 2-(2-methoxyethyl)-N-(3-methoxyphenyl)-3-(5-methylisoxazol-3-yl)-1-oxo-1,2,3,4-tetrahydroisoquinoline-4-carboxamide] | 75.2 (≈ 173 µM) | 40.4 (≈ 92.7 µM)
2 | COCCN1C(=O)c2ccccc2C(C(=O)Nc2cccc(-n3cncn3)c2)C1c1cccs1 (stereo not drawn) [C200, N-(3-(1H-1,2,4-triazol-1-yl)phenyl)-2-(2-methoxyethyl)-1-oxo-3-(thiophen-2-yl)-1,2,3,4-tetrahydroisoquinoline-4-carboxamide] | 59.4 (≈ 125 µM) | 0.32 (≈ 0.676 µM)
3 | COCCN1C(=O)c2ccccc2C(C(=O)Nc2cccc(OC)c2)C1c1ccco1 (stereo not drawn) [C6, 3-(furan-2-yl)-2-(2-methoxyethyl)-N-(3-methoxyphenyl)-1-oxo-1,2,3,4-tetrahydroisoquinoline-4-carboxamide] | 69.6 (≈ 166 µM) | 6.3 (≈ 15 µM)
4 | COCCN1C(=O)c2ccccc2C(C(=O)Nc2ccc(C)c(NS(C)(=O)=O)c2)C1c1cccs1 (stereo not drawn) [C213, 2-(2-methoxyethyl)-N-(4-methyl-3-(methylsulfonamido)phenyl)-1-oxo-3-(thiophen-2-yl)-1,2,3,4-tetrahydroisoquinoline-4-carboxamide] | > 100 | 0.036 (≈ 0.0701 µM)
5 | COCCN1C(=O)c2ccccc2C(C(=O)Nc2ccc(Cn3cccn3)cc2)C1c1cccs1 (stereo not drawn) [C174, N-(4-((1H-pyrazol-1-yl)methyl)phenyl)-2-(2-methoxyethyl)-1-oxo-3-(thiophen-2-yl)-1,2,3,4-tetrahydroisoquinoline-4-carboxamide] | 43 (≈ 88.3 µM) | 0.15 (≈ 0.308 µM)
6 | COCCN1C(=O)c2ccccc2C(C(=O)Nc2cc(C)on2)C1c1cccs1 (stereo not drawn) [C126, 2-(2-methoxyethyl)-N-(5-methylisoxazol-3-yl)-1-oxo-3-(thiophen-2-yl)-1,2,3,4-tetrahydroisoquinoline-4-carboxamide] | 58.1 (≈ 141 µM) | 0.9 (≈ 2.19 µM)
7 | COCCN1C(=O)c2ccccc2C(C(=O)Nc2cccc(OC)c2)C1c1ccc(Cl)s1 (stereo not drawn) [C135, 3-(5-chlorothiophen-2-yl)-2-(2-methoxyethyl)-N-(3-methoxyphenyl)-1-oxo-1,2,3,4-tetrahydroisoquinoline-4-carboxamide] | 56.7 (≈ 120 µM) | 0.52 (≈ 1.1 µM)
8 | COCCN1C(=O)c2ccccc2C(C(=O)Nc2cc(-c3ccco3)[nH]n2)C1c1cccs1 (stereo not drawn) [C183, N-(5-(furan-2-yl)-1H-pyrazol-3-yl)-2-(2-methoxyethyl)-1-oxo-3-(thiophen-2-yl)-1,2,3,4-tetrahydroisoquinoline-4-carboxamide] | 77 (≈ 166 µM) | 50.2 (≈ 109 µM)
9 | COCCN1C(=O)c2ccccc2C(C(=O)Nc2ccc(-c3nncn3C)cc2)C1c1cccs1 (stereo not drawn) [C214, 2-(2-methoxyethyl)-N-(4-(4-methyl-4H-1,2,4-triazol-3-yl)phenyl)-1-oxo-3-(thiophen-2-yl)-1,2,3,4-tetrahydroisoquinoline-4-carboxamide] | 85.3 (≈ 175 µM) | 5.29 (≈ 10.8 µM)
10 | COCCN1C(=O)c2ccccc2C(C(=O)Nc2cccc(OC)c2)C1c1ccncc1 (stereo not drawn) [C30, 2-(2-Methoxyethyl)-N-(3-methoxyphenyl)-1-oxo-3-(pyridin-4-yl)-1,2,3,4-tetrahydroisoquinoline-4-carboxamide] | 70.3 (≈ 163 µM) | 36.7 (≈ 85 µM)
11 | COCCN1C(=O)c2ccccc2C(C(=O)Nc2cccc(OC)c2)C1c1sccc1Cl (stereo not drawn) [C17, 3-(3-Chlorothiophen-2-yl)-2-(2-methoxyethyl)-N-(3-methoxyphenyl)-1-oxo-1,2,3,4-tetrahydroisoquinoline-4-carboxamide] | 50.4 (≈ 107 µM) | 3.8 (≈ 8.07 µM)
12 | COCCN1C(=O)c2ccccc2C(C(=O)Nc2onc(C)c2C#N)C1c1cccs1 (stereo not drawn) [C155, N-(4-cyano-3-methylisoxazol-5-yl)-2-(2-methoxyethyl)-1-oxo-3-(thiophen-2-yl)-1,2,3,4-tetrahydroisoquinoline-4-carboxamide] | 76.4 (≈ 175 µM) | 5.65 (≈ 12.9 µM)
